Legend:
[1] = test system: CDHFD/NaNO2 rats; experiment: Quantitative morphometric analysis of liver collagen by Picrosirius Red (PSR) staining in CDHFD/NaNO2 rat model of NASH; assay type: in vivo, male Wistar rats; conditions: week 4 to 14; for PSR area (% area of liver): mean±SEM, vehicle-treated CDHFD/NaNO2 rats 8.5±0.6%, healthy control 1.7±0.3%, Formula (I) 0.2% in diet, Formula (III) 30 mg/kg/day; for reduction of liver collagen (PSR): vs vehicle-treated CDHFD/NaNO2 rats, Formula (I) 0.2% admixture in diet, Formula (III) 30 mg/kg/day in diet
Protocol: (§1) The following study was conducted to evaluate the efficacy of the combination of an ASK1 inhibitor and an FXR agonist in a rodent model of non-alcoholic steatohepatitis (NASH), relative to the efficacy of the individual agents alone in the model. NASH was induced in male Wistar rats by administration of a choline-deficient high fat diet (CDHFD) combined with the chronic administration of sodium nitrite (CDHFD/NaNO2). The model capitalizes on the “two hit theory” of NASH by inducing both metabolic dysfunction (CDHFD) and oxidative stress (NaNO2) in the liver to result in hepatic fibrosis that is similar in character and severity to that seen in patients with advanced NASH. Rats were fed CDHFD for a total of 14 weeks and were administered NaNO2 from week 4 to 14. The compound of Formula (III) (given as admixture in diet, adjusted to deliver 30 mg/kg/day), compound of Formula (I) (administered as a 0.2% admixture in diet), or vehicle was administered from week 4 to 14. The following endpoints were assessed at the completion of the 14 week study: i) liver fibrosis measured by liver hydroxyproline (OHP) content and by quantitative morphometric analysis of collagen content by Picosirius red (PSR) staining; ii) myofibroblast activation in liver sections as measured by quantitative IHC of the myofibroblast marker desmin; and, iii) Col1a1 and Timp1 in liver tissue measured by RT-PCR. All CDHFD/NaNO2 animals were fed a choline-deficient high-fat diet (CDHFD; Research Diets, Inc) for 14 weeks and were also administered intraperitoneal injections of NaNO2 (3 injections per week; Sigma Aldrich #31443) at a dose of 25 mg/kg (from week 4 to 10) and at a dose of 12.5 mg/kg (from week 10 to 14). Formula (III) (given as admixture in the CDHFD diet, adjusted to deliver 30 mg/kg/day, n=10 animals per group) and Formula (I) (given as a 0.2% admixture in the CDHFD diet, n=10 per group) were administered drug from week 4 to 14. Vehicle control animals were administered the same CDHFD diet with no drug added (Vehicle; n=10 animals per group) from week 4 to 14. […] On the final day of study, rats received a single oral gavage of either Formula (I) or Formula (III) at a dose of 30 mg/kg, four hours before animals were euthanized and tissues were collected for analyses. All endpoints were assessed at the completion of the 14 week study protocol. Whole slide images of Picrosirius Red (PSR) and Desmin stained slides were captured using a Leica AT2 scanner at 40× magnification. […] Quantitative image analysis was performed on the whole slide-scan images using Definiens Tissue Studio Architect XD (Definiens Inc.) to determine the extent and intensity of PSR and Desmin. […] The total PSR-stained area and Desmin IHC staining were measured and expressed as a percentage of total liver area stained.

[2] = test system: CDHFD/NaNO2 rats; experiment: Quantitative IHC of the myofibroblast marker desmin in liver, CDHFD/NaNO2 rat model of NASH; assay type: in vivo, male Wistar rats; conditions: for liver % desmin marker area: mean±SEM, vehicle-treated CDHFD/NaNO2 rats 10.3±0.8%, healthy control 0.7±0.1%; for reduction of liver desmin staining: vs vehicle-treated CDHFD/NaNO2 rats, Formula (I) 0.2% in diet, Formula (III) 30 mg/kg/day, week 4 to 14
Protocol: as §1

[3] = test system: FFD mice; experiment: Plasma bile acids by LC-MS/MS in FFD mouse model of NASH; assay type: in vivo, male C57BL/6 mice; conditions: Formula (I) 0.15% admixture in diet, Formula (III) 10 mg/kg PO QD, months 7-10
Protocol: The following study was conducted to evaluate the efficacy of the combination of an ASK1 inhibitor and an FXR agonist in a mouse model of non-alcoholic steatohepatitis (NASH), relative to the efficacy of the individual agents alone in the model. NASH was induced in male C57BL/6 mice by chronic administration of a “fast food” diet (FFD) high in saturated fats, cholesterol and sugars for a total of 10 months, whereas lean control animals were maintained on a normal chow diet. A NASH phenotype was established in FFD mice compared to control mice by 7 months, and was characterized by obesity, hypercholesterolemia, and AST/ALT elevation; and by histological features of NASH such as hepatocellular macrovesicular steatosis and ballooning degeneration. See Charlton M, et al. Fast food diet mouse: novel small animal model of NASH with ballooning, progressive fibrosis, and high physiological fidelity to the human condition. American journal of physiology. Gastrointestinal and liver physiology 2011; 301 (5):G825-34. […] Endpoint analyses included morphometric quantification of liver steatosis (% of steatotic area), liver cholesterol content, serum ALT/AST levels, serum bile acid levels, and nanostring evaluation of gene expression. […] Plasma samples were sent to Metabolon, Inc. (Durham, N.C.) for quantification of primary and secondary bile acids and their conjugates by LC-MS/MS.

SMILES | PSR area (% area of liver) [1] | reduction of liver collagen (PSR) [1] | liver % desmin marker area [2] | reduction of liver desmin staining [2] | reduction in plasma bile acid levels [3]
O=C(Nc1cccc(-c2nncn2C2CC2)c1)c1cc(-n2cnc(C3CC3)c2)ccn1 [Formula (I)] | 6.2±1.1% | 27% | 5.6±0.7% | 46% | 52%
O=C(O)c1ccnc(N2CC(O)(c3ccc(OCc4c(-c5c(Cl)cccc5Cl)noc4C4CC4)cc3Cl)C2)c1 [Formula (III)] | 6.6±0.9% | 22% | 5.9±0.7% | 43% | 46%

Source: patent US20180133203A1, “METHODS OF TREATING LIVER DISEASE” (Gilead Sciences, Inc., priority 2016, published 2018)
